In patent publication US6953578B2, “Materials and methods for detection and treatment of immune system dysfunctions” (University of Florida Research Foundation, Inc., priority 1996, dated 2005):
Marks after values point to notes of the source that are not given here.

What was measured:
NOD mice [1] = assay: Incidence of diabetes in NOD mice treated through drinking water; type: in vivo, mouse
Description: Blocking the activity of PGS-2 with drugs that reduce PG production can be used to prevent or slow the development of IDD disease. When NOD mice with established, active autoimmune disease are treated through their drinking water with a combination of drugs, including a PGS-1/PGS-2 inhibitor, low dose indomethacin (3 μg/ml), in conjunction with an inducible nitric oxide synthase (iNOS) inhibitor, aminoguanidine, which potentiates the effects of indomethacin, the incidence of diabetes in NOD mice drops by 42% in comparison to control animals and animals treated with either low dose indomethacin or aminoguanidine alone.
Treatment of NOD mice at a time when autoimmunity is in its final stages with high doses (15 μg/ml) of indomethacin alone reduces the incidence of diabetes from 77% to 22%.

PGS-2 mRNA = PGS-2 mRNA expression in monocytes by RT-PCR; type: cell-based, human
Description: RT-PCR detection of PGS-2 mRNA in human monocytes. Human peripheral blood is collected in sterile green top 10 ml tubes. Assays are preferably performed with 5 ml or more of blood. The blood is then centrifuged on a ficoll gradient for 30 minutes at 1500 rpm. Monocytes are isolated to >80% purity by adherence for 2 hours to a plastic culture surface. Cells are then cultured overnight in RMPI-1640 plus endotoxin-free fetal calf sera. The cells are harvested after 16 hours of culture by cold Ca^++/Mg^++-free PBS, the cells are counted, and viability is assessed. Monocytes cultured in 10 μg/ml LPS serve as a positive control for each sample tested. The poly mRNA is then harvested from a standard 10^5 monocytes using a kit (Quiagen). The mRNA is then reverse transcribed in a standard reaction mixture. The cDNA is then amplified by PGS-2-specific primers designed by our laboratory using a standard […] for 45 cycles. The PCR product is then run out on agarose gels with known standards and the size confirmed. β-actin is used as an internal control in these reactions. The identity of RT-PCR products were confirmed by size and Southern blotting using a PGS-2-specific labeled internal probe.
Monocytes were examined from ICA+ humans with a high risk of developing IDD, individuals with established SLE and autoimmune thyroid disease, and healthy controls. A portion of the pre-diabetic ICA+ individuals examined are enrolled in an IDD trial where they receive daily subcutaneous insulin as a preventative therapy. Monocytes of humans without autoimmune disease infrequently express PGS-2 mRNA (12%), whereas monocytes from subjects who are at high risk for the development of IDD express PGS-2 at a highly significant frequency (84%, p<0.0001).

monocytes [2] = assay: TNFα and IL-1β in supernatants of monocytes cultured 24 hours; type: cell-based, human; settings: monocytes cultured in vitro 24 hours
Description: The expression of PGS-2 can be induced by several factors including cytokines produced by monocytes such as TNFα and IL-1β. To evaluate the possibility that monocytes of pre-IDD subjects produce large quantities of IL-1 and TNFα which induces PGS-2, the levels of these cytokines were measured in supernatants of monocytes cultured in vitro for 24 hours from pre-IDD and healthy controls. […] The lower levels of these cytokines is consistent with the constitutive production of prostaglandins which suppress the production of both TNFα and IL-1β.

monocytes [3] = assay: PGE2 production by monocytes, specific ELISA; type: cell-based, human
Source text: In addition to the expression of PGS-2, the production of PGE2 by monocytes from these same control and autoimmune individuals was examined.

monocytes [4] = assay: Monokine production in monocyte culture supernatants with and without NS-398; type: cell-based, human; settings: monocytes of healthy controls and pre-diabetic population
Source text: The monocyte production of the monokines IL-1β, TNFα, IL-1RA, and IL-10 in culture supernatants from healthy controls and the pre-diabetic population in the presence and absence of the PGS-2-specific inhibitor, NS-398, have been evaluated. […] It has also been determined that, despite enhanced levels of PGS-2 and PGE2 in diabetic and pre-diabetic individuals, there is no corresponding increase in IL-10. […] Therefore, a further aspect of the subject invention is a method for detecting evidence of autoimmune disease, particularly diabetes, which comprises evaluating monocytes to determine if those monocytes have a reduced response to IL-10 with regard to PGS-2 expression. Such reduced response would be evidence of disease. In accordance with these findings, compounds that inhibit prostaglandin production can be used to modulate the production of anti-inflammatory monokines in order to limit the immune response. The spontaneous expression of PGS-2 and the production of PGE2 by pre-diabetic monocytes may influence their function, limiting their ability to produce monokines that would have a potent effect on limiting the autoimmune response to the β-cells of the islet and therefore would promote the progression to diabetes.

NOD mice [5] = assay: PGE2 production by monocytes of NOD mice after IL-10 administration; type: in vivo, mouse; settings: administration of IL-10

Molecule: COc1ccc2c(c1)c(CC(=O)O)c(C)n2C(=O)c1ccc(Cl)cc1 [indomethacin]
- development of IDD (NOD mice [1]; NOD mice treated at an early stage of disease): effectively blocks the development of IDD
- incidence of diabetes (NOD mice [1]; NOD mice, autoimmunity in final stages, indomethacin alone 15 μg/ml, untreated 77%): 22%

Molecule: insulin
- % PGS-2 + (PGS-2 mRNA; ICA+ pre-IDD subjects, insulin-treated, Table 6): 73.6** %
- % Positive (PGS-2 mRNA) (PGS-2 mRNA; ICA+ subjects on daily subcutaneous preventative insulin, Table 2): 71%
- PGS-2 mRNA or protein expression (PGS-2 mRNA; preventative insulin therapy in ICA+ subjects): does not appear to affect
- TNFα and IL-1β levels, insulin-treated versus untreated pre-IDD (monocytes [2]): no significant differences
- PGE2 (monocytes [3]; monocytes of ICA+/PGS-2+ subjects on insulin therapy): 5805 ± 1544 pg/mL

Molecule: CS(=O)(=O)Nc1ccc([N+](=O)[O-])cc1OC1CCCCC1 [NS-398]
- production of IL-1RA (monocytes [4]): promotes the production
- production of IL-10 (monocytes [4]): promotes the production
- production of PGE2 (monocytes [3]; monocytes of control and autoimmune individuals, FIG. 1): completely blocked
- PGS-2 production in vitro (monocytes [3]; monocytes of individuals at high risk for IDD): effectively blocks all PGS-2 production

B1: IL-10: monokine that tends to downregulate inflammation and immune responses (protein, UniProt P22301 19-178, looked up)
Interleukin-10: SPGQGTQSENSCTHFPGNLPNMLRDLRDAFSRVKTFFQMKDQLDNLLLKESLLEDFKGYLGCQALSEMIQFYLEEVMPQAENQDPDIKAHVNSLGENLKTLRLRLRRCHRFLPCENKSKAVEQVKNAFNKLQEKGIYKAMSEFDIFINYIEAYMTMKIRN
- PGE2 production by monocytes (NOD mice [5]): does not inhibit PGE2 production
